Experimental data reported in PMC5587747, “A natural chalcone induces apoptosis in lung cancer cells: 3D-QSAR, docking and an in vivo/vitro assay” (Scientific Reports, 2017).
pIC50: −log10 of the molar value. ≈ marks a conversion by molar mass, not a printed value. Read-outs that look alike come from different tables or passages of the source.

What was measured:
[1] = system: CEM leukaemic cell line; parameters: method as in PMID 12601679; settings: cited from earlier work
[2] = system: H1792; test: MTT cytotoxicity assay, H1792 cells; type: cell-based, human; settings: Homo sapiens, NCI-H1792, lonchocarpin 100 μM, read-out: inhibition rate (IR %)
Experimental: (§1) The cytotoxicities of the tested flavonoids were assayed in ten human lung cancer cell lines (A549, H226, H358, H522, H292, H1944, H460, H1792, SW1573, and Calu-1) using MTT reduction assay. Cisplatin (DDP) was selected as a positive control. Compounds 1–37 were dissolved in DMSO to obtain a clear solution of 1 M, which was diluted to 400 mM, 200 mM, 100 mM, 75 mM, 50 mM, 37.5 mM, 25 mM, 10 mM and 1 mM respectively as stock solutions. The DMSO concentration in the medium was kept below 0.10%. Moreover, the stability of tested compounds in experimental buffer was confirmed at 24 h and 48 h respectively by means of HPLC analysis. Then the human lung cancer cells were placed in 96-well culture plates (5 × 10^4 cells/well) and incubated for 24 h. Then, the cells were pretreated with different concentrations of test samples (gradient concentrations 1.0, 10.0, 25.0, 37.5, 50, 75, 100, 200, 400, 1000 μM for compounds 1–37 and DDP) for 48 h. And cell growth was measured by MTT assays. The cytotoxicities against the lung cancer cells were determined systematically and expressed as IC50 value.

[3] = system: H226; test: MTT cytotoxicity assay, H226 cells; type: cell-based, human; settings: Homo sapiens, NCI-H226, lonchocarpin 100 μM, read-out: inhibition rate (IR %)
Experimental: as §1

[4] = system: S180-bearing mice; test: In vivo antitumor activity in S180 implanted mice; settings: 12 days; for Tumor weight/g: mean ± SE
Experimental: The animal experiments were carried out according to the National Institute of Health Guide for the Care and Use of Laboratory Animals. And the use of experimental animals was approved by the Animal Ethics Committee of Shenyang Pharmaceutical University. Male Kunming mice, were housed in separate cages under standard conditions (20–24 °C), relative humidity (55% ± 5%) and a 12 h light/12 h dark cycle, and allowed to acclimatize for 3 days prior to the start of experiment. Cultured S180 cells were harvested and washed with sterilized PBS (pH 7.2) three times and resuspended at a density of 6 × 10^6 cells/ml. Mice received subcutaneous implants of 0.2 mL/mouse on the right flank by means of hypodermic injection. Then the mice were divided randomly into 5 groups, including model, positive control and treatment groups with 10 mice in each group after inoculation for 24 h. […] Both groups received oral administrations via an intubation needle every day. […] The weight of the mice was recorded every day throughout the experiment. Finally, the mice were sacrificed by cervical dislocation just 2 h after the last administration. Then the tumor and spleen tissues were harvested and weighed immediately. After that the in vivo tumor inhibition ratio was calculated as: Inhibition ratio (%) = 100((A−B)/A), in which A represents the average tumor weight of the control group and B is recorded as the tumor weight of the administration group. Then, the spleen index was recorded using the following formula:
Spleen index = the final weight of spleen (mg)/the final average body weight (g) without tumor.

[5] = system: Vero cells; test: Cytotoxicity in Vero cells; type: cell-based; settings: at 1000 μM
[6] = system: H358; test: MTT cytotoxicity assay, H358 cells; type: cell-based, human; settings: Homo sapiens, NCI-H358, lonchocarpin 100 μM, read-out: inhibition rate (IR %)
Experimental: as §1

[7] = system: H460; test: MTT cytotoxicity assay, H460 cells; type: cell-based, human; settings: Homo sapiens, NCI-H460, lonchocarpin 100 μM, read-out: inhibition rate (IR %)
Experimental: as §1

[8] = system: H292 cells; test: MTT cytotoxicity assay, H292 cells; type: cell-based, human; settings: Homo sapiens, NCI-H292
Experimental: as §1

[9] = system: H292 cells; test: Annexin V/PI apoptosis assay by flow cytometry; type: cell-based, human; settings: H292, 20 μM
Experimental: Cell apoptosis was evaluated by Annexin V/PI staining assay and analyzed using an apoptosis detection kit (Keygen, Nanjing, China)[37]. Briefly, H292 cells were cultured at the density of 1 × 10^6 cells/well. […] Both attached and floating cells were harvested at the arranged time point, and washed twice with ice-cold PBS, then resuspended in 100 μL binding buffer with Annexin V and PI for 15 min at 37 °C in darkness. Finally, the treated cells were analyzed by flow cytometry (Becton Dickinson, Franklin Lakes, NJ, USA) and Cell Quest software. The apoptosis rate was given by the following formula:
Apoptosis rate % = (number of apoptotic cells)/(number of total cells observed) × 100%.

[10] = system: Calu-1; test: MTT cytotoxicity assay, Calu-1 cells; type: cell-based, human; settings: Homo sapiens, lonchocarpin 100 μM, read-out: inhibition rate (IR %)
Experimental: as §1

[11] = system: Bcl-2, Bax, procaspase-3, cleaved caspase-3, cytochrome c, caspase-9 in H292 cells; test: Western blotting of apoptosis-related proteins; type: cell-based, human; settings: H292, 20 μM
Experimental: Western blotting was performed according to the method described in previous research. […] Then, the cells were harvested and then washed with PBS and lysed in a radio immune-precipitation assay buffer for 30 min. BCA protein assay kit (Byontime, Beijing, China) was used for determination of the total protein contents. And the protein samples were dissolved and seperated on 10% SDS-PAGE gels. After that the proteins were transferred to PVDF (polyvinylidene fluoride) (Bio-Rad, Hercules, CA) membranes and incubated sequentially with blocking buffer, primary antibodies, and horseradish peroxidase-conjugated secondary antibodies.

[12] = system: H1944; test: MTT cytotoxicity assay, H1944 cells; type: cell-based, human; settings: Homo sapiens, NCI-H1944, lonchocarpin 100 μM, read-out: inhibition rate (IR %)
Experimental: as §1

[13] = system: A549; test: MTT cytotoxicity assay, A549 cells; type: cell-based, human; settings: Homo sapiens, lonchocarpin 100 μM, read-out: inhibition rate (IR %)
Experimental: as §1

[14] = system: SW1573; test: MTT cytotoxicity assay, SW1573 cells; type: cell-based, human; settings: Homo sapiens, lonchocarpin 100 μM, read-out: inhibition rate (IR %)
Experimental: as §1

[15] = system: H522; test: MTT cytotoxicity assay, H522 cells; type: cell-based, human; settings: Homo sapiens, NCI-H522, lonchocarpin 100 μM, read-out: inhibition rate (IR %)
Experimental: as §1

Spleen index ([4]; 25 mg/kg oral daily): 3.08 mg/g
Spleen index ([4]; 50 mg/kg oral daily): 3.17 mg/g
Spleen index ([4]; 100 mg/kg oral daily): 3.30 mg/g
SMILES: CC1(C)C=Cc2c(ccc(C(=O)/C=C/c3ccccc3)c2O)O1 [Compound 34, lonchocarpin]
IC50 [1]: 10.4 µg/mL (≈ 33.9 µM)
inhibition at 100 µM [2]: 46.7%
inhibition at 100 µM [3]: 62%
Body weight/g After experiment ([4]; 25 mg/kg oral daily): 26.45 ± 0.68 g
Body weight/g Before experiment ([4]; 25 mg/kg oral daily): 39.19 ± 2.15 g
Inhibitory rate (%) ([4]; 25 mg/kg oral daily): 57.94%
Tumor weight/g ([4]; 25 mg/kg oral daily): 3.39 ± 0.69 g
Body weight/g After experiment ([4]; 50 mg/kg oral daily): 28.99 ± 0.47 g
Body weight/g Before experiment ([4]; 50 mg/kg oral daily): 36.48 ± 1.38 g
Inhibitory rate (%) ([4]; 50 mg/kg oral daily): 63.40%
Tumor weight/g ([4]; 50 mg/kg oral daily): 2.95 ± 0.66 g
Body weight/g After experiment ([4]; 100 mg/kg oral daily): 28.21 ± 1.98 g
Body weight/g Before experiment ([4]; 100 mg/kg oral daily): 38.71 ± 2.20 g
Inhibitory rate (%) ([4]; 100 mg/kg oral daily): 72.51%
Tumor weight/g ([4]; 100 mg/kg oral daily): 2.21 ± 0.72 g
cytotoxicity in Vero cells ([5]; listed as Lonchocarpin): no cytotoxicity
cytotoxicity in Vero cells ([5]; listed as lonchocarpin): no toxicity
inhibition at 100 µM [6]: 51.3%
inhibition at 100 µM [7]: 76.3%
inhibition at 100 µM ([8]; H292, lonchocarpin 100 μM, read-out: inhibition rate (IR %)): 97.5%
pIC50 ([8]; H292 cells, MTT, 48 h, read-out: IC50): 5.00
IC50 ([8]; H292 cells, Table S2, read-out: pIC50 (converted)): 10 µM
early apoptosis (lower right quadrant) ([9]; 12 h): 7.2%
late apoptosis (upper right quadrant) ([9]; 12 h): 3.9%
apoptosis ([9]; 24 h): about 41.1%
apoptosis ([9]; 48 h): ~47.9%
inhibition at 100 µM [10]: 23.8%
Bax protein expression [11]: up-regulation
caspase-9 [11]: activation
cytochrome c protein expression [11]: up-regulation
procaspase-3 protein expression [11]: reduction
Bcl-2 protein expression ([11]; 24 h and 48 h): obviously down-regulated
cleaved caspase-3 protein expression ([11]; 48 h): significantly increased
inhibition at 100 µM [12]: 69.2%
inhibition at 100 µM [13]: 42.3%
inhibition at 100 µM [14]: 92.3%
inhibition at 100 µM [15]: 63%
